Measured values: patent publication US4968713A, “Certain imidazole compounds as transglutaminase inhibitors” (Merck & Co., Inc., priority 1989, dated 1990)
Counter-ions that a name gives are not always drawn.

Target: T1, Factor XIIIa (Homo sapiens, UniProt P00488)
T1 construct: from tissue; host or cells: human plasma
T1 sequence (P00488 39-732 limits assumed): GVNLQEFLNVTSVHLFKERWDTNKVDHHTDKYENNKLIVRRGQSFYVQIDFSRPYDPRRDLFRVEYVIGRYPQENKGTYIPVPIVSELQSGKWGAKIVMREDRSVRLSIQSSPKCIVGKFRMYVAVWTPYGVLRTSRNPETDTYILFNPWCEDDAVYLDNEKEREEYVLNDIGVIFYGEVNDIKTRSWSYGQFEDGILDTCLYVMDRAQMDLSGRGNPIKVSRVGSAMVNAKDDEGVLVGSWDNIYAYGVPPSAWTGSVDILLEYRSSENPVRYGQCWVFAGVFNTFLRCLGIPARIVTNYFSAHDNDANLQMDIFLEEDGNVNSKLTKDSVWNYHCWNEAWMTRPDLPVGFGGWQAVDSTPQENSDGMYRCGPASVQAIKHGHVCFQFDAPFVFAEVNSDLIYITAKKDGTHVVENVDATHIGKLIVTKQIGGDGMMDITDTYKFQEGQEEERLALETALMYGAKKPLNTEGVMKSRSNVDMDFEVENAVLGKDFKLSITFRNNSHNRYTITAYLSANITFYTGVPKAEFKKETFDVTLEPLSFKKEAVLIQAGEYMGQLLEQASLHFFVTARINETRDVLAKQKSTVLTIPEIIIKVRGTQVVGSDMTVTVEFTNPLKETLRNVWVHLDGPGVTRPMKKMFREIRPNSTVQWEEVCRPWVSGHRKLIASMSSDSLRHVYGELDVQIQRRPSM
Test: Factor XIIIa inhibitor assay (incorporation of 14C-putrescine into casein)
Format: biochemical
Conditions: for inhibition at 0.1 µM: @ 100 nM
Description: The Factor XIIIa inhibitor assay is based on the incorporation of ^14 C-putrescine into casein catalyzed by Factor XIIIa. The assay is carried out employing the procedure described in Methods in Enzymology, Vol. 45, Ch 15., pages 177-191 (1976) and using Factor XIII (F XIII) isolated from human plasma. The procedure is summarized briefly and schematically illustrated as follows: [drawing 9] Factor XIII assay mixtures are prepared by adding stepwise, appropriately prepared solutions of thrombin and dithiothreitol (DTT) to a mixture comprising Factor XIII at 140 μg/mL in glycerol/water and tris(hydroxymethyl)aminomethane hydrochloride (Tris.HCl). To a portion of the mixture is added calcium chloride as source of calcium ions required for enzyme activity and to the remaining mixture is added, instead of calcium ions, ethylenediaminetetraacetic acid (EDTA) which serves as a blank for background. A substrate mixture is prepared from ^14 C-putrescine and N,N-dimethylcasein. The assay tubes and control tubes are charged with the substrate mixture and incubated at 37° C. for 20 minutes. Samples are withdrawn from each tube, spotted onto a filter disk which is then immersed in ice cold trichloroacetic acid solution to precipitate the casein on the filter. The filter is then washed to remove unincorporated or free ^14 C-putrescine and after drying is counted for ^14 C-putrescine incorporated to casein from which percent activity and/or inhibition can be calculated.

[1] = read-out: Percent inhibition (Molar concn)

Structure (SMILES): CCC(=O)CSc1n(C)c(C)c(C)[n+]1C [CH3, CH3, CH3, CH3, CH3, CF3 SO3^-]
- inhibition at 0.1 µM [1]: 93%

Structure (SMILES): CCCc1c(CCC)[n+](C)c(SCC(C)=O)n1C [H, CH3, C3 H7, C3 H7, CH3, CF3 SO3^-, 1,3-Dimethyl-4,5-di(n-propyl)-2-[(2-oxopropyl)thio]imidazolium trifluoromethylsulfonate]
- inhibition at 0.1 µM [1]: 86%

Structure (SMILES): CCCc1nc(SCC(C)=O)n(C)c1C [H, CH3, CH3, C3 H7, --, HCl]
- inhibition at 4 µM (@ 4 μM, read-out: Percent inhibition (Molar concn)): 46%

Structure (SMILES): CC(=O)CSc1nc(C)c(C)n1C [H, CH3, CH3, CH3, --, HCl, 1,4,5-Trimethyl-2[(2-oxopropyl)thio]imidazole]
- inhibition at 3.7 µM (@ 3.7 μM, read-out: Percent inhibition (Molar concn)): 76%

Structure (SMILES): CC(=O)CSc1n(C)c(C)c(C)[n+]1C [H, CH3, CH3, CH3, CH3, CF3 SO3^-, 1,3,4,5-tetramethyl-2[(2-oxopropyl)thio]imidazolium trifluoromethylsulfonate]
- inhibition at 0.08 µM (@ 80 nM, read-out: Percent inhibition (Molar concn)): 95%

Structure (SMILES): CC(=O)CSc1n(C)c(C)c(C)[n+]1C.[Cl-] [H, CH3, CH3, CH3, CH3, Cl^-, 1,3,4,5-Tetramethyl-2[(2-oxopropyl)thio]imidazolium chloride]
- Percent inhibition (Molar concn) (@ 80 nM): 95%

Structure (SMILES): CC(=O)CSc1ncc(C)n1C [H, CH3, CH3, H, --, HCl, 1,5-Dimethyl-2[(2-oxopropyl)thio]imidazole]
- inhibition at 2 µM (@ 2 μM, read-out: Percent inhibition (Molar concn)): 47%

Structure (SMILES): CC(=O)CSc1n(C)c(C)c[n+]1C [H, CH3, CH3, H, CH3, CF3 SO3^-, 1,3,5-Trimethyl-2[(2-oxopropyl)thio]imidazolium trifluoromethylsulfonate]
- inhibition at 0.1 µM [1]: 90%

Structure (SMILES): CC(=O)CSc1nccn1C [H, CH3, H, H, --, --]
- inhibition at 0.15 µM (@ 0.15 μM, read-out: Percent inhibition (Molar concn)): 40%

Structure (SMILES): CC(=O)CSc1n(C)cc[n+]1C [H, CH3, H, H, CH3, Cl^-]
- inhibition at 0.313 µM (@ 313 nM, read-out: Percent inhibition (Molar concn)): 67%

Structure (SMILES): CC(=O)CSc1n(C)cc[n+]1C [H, CH3, H, H, CH3, I^-]
- inhibition at 0.11 µM (@ 110 nM, read-out: Percent inhibition (Molar concn)): 44%

Structure (SMILES): CC(=O)CSc1n(C)c(C(C)C)c(C(C)C)[n+]1C [H, CH3, iPr, iPr, CH3, CF3 SO3^-]
- inhibition at 1 µM (@ 1.0 μM, read-out: Percent inhibition (Molar concn)): 44%
